Measurements reported in patent publication US20120083464A1, “NEUROPROTECTIVE PROPERTIES OF 5'-METHYLTHIOADENOSINE” (priority 2009, published 2012).

Tests used:
RN22 cells = experiment: Copper sulphate stress in RN22 cells, ROS levels; assay type: cell-based, rat; conditions: copper sulphate 150 μM, different time periods
Description: RN22 cells were maintained at 37° C. in DMEM medium supplemented with 10% of fetal bovine serum and penicillin/streptomycine. The assays against stress with copper sulphate were conducted using 24-well plates in DMEM medium without serum. After allowing cell adherence for three days, NGF (100 ng/ml) or MTA was added to different concentrations half an hour before the copper sulphate (150 μM). After twenty-four hours, cell viability was quantified by MTT assay and ROS production was quantified by fluorescence. Assays against stress with hydrogen peroxide were conducted in the same way as the foregoing, using 100 μM hydrogen peroxide as a stress-producing agent.
We determined the quantity of ROS produced by the cells after stress with and without treatment. 2′,7′- dichlorodihydrofluorescein (DCFH) is generally used to measure oxidative stress in cells. The cells were incubated with DCFH-DA (10 μM) at 37° C. for thirty minutes. After incubation, the cells were washed twice with PBS and lysed by adding 10 mM Tris-HCL buffer containing 0.5% of Tween 20. The homogenates were then centrifuged at 10,000 g for ten minutes to separate the cell residue and […] fluorescence in the supernatant was measured using a fluorometer (excitation wavelength 492-495 nm, emission wavelength 517-527 nm) (Invitrogen).

caspase 3 activity = experiment: NMDA-mediated increase in caspase 3 activity in pure neuronal culture; assay type: cell-based, Sprague-Dawley rat; conditions: NMDA 300 μM, MTA 100 to 500 μM
Description: Primary cultures of brain cortical neurons were essentially prepared as described previously (Bruno et al., 2001, Eur. J. Neurosci., 13:1469-1478). The fronto-lateral cortical lobes were dissected out of Sprague-Dawley embryonic day 17 foetuses and were mechanically dissociated in Hanks' balanced solution. The cortical lobes were triturated by aspirating 7-10 times using a Pasteur pipette with a flame-narrowed tip. […]
Cortical neurons or mixed cortical neurons and glia were plated on poly-L-lysine-coated 6-well culture plates and after 7 DIV, cells were treated with vehicle or NMDA (300 μM) for different periods of time. […] Extracts were then centrifuged at 5,000×g for 10 min at 4° C., and protein content was determined by using the BCA protein assay according to the manufacturer instructions. Cell extracts (40 μg of protein) were incubated in reaction buffer (25 mM Hepes, 10% sucrose, 0.1% CHAPS, 10 mM DTT) containing 50 μM fluorescence substrate Z-DEVD-AFC at 37° C. for 1 h. Cleavage of the AFC fluorophore was determined in a spectrofluorometer at excitation wavelength of 400 nm and fluorescence was detected at an emission wavelength of 505 nm. Caspase 3 activity was expressed as units of fluorescence/mg of protein/h (Posadas et al., 2009, Pharm. Res., In press).

CSC[C@H]1O[C@@H](n2cnc3c(N)ncnc32)[C@H](O)[C@@H]1O [MTA, 5′-methylthioadenosine]
ROS production under copper sulphate stress (RN22 cells): reduce ROS production | effect on NMDA-mediated increase in caspase 3 activity (caspase 3 activity): Lack of effect
